Laboratory results from US12247004B2, “2-amino-N-(amino-oxo-aryl-lambda6-sulfanylidene)acetamide compounds and their therapeutic use” (Oxford Drug Design Limited, priority 2019, dated 2025).
Where two headings read alike, the source gives them in different places.

Columns and labels:
HepG2 ATCC HB-8065 cells = test: Human cell viability / cytotoxicity (CellTiter-Glo, 24 hours); assay type: cell-based; settings: HepG2 ATCC HB-8065, 24 hours
Procedure, shortened: (§1)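 HepG2 cells (15,000/well, MEM with 1% NEAA and 1% pyruvate) were grown 2 days, then exposed to compounds in duplicate for 24 h at 1.28% DMSO. Viability was read as ATP by CellTiter-Glo luminescence relative to DMSO-only wells. IC50 is in μg/mL.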

[1] = target: Leucyl-tRNA synthetase (LeuRS) (Escherichia coli (strain K12), UniProt P07813); test: Leucyl-tRNA synthetase enzyme inhibition (AMP-Glo; single point % inhibition at 100 μM and IC50); assay type: biochemical
Chain of Leucyl-tRNA synthetase (LeuRS) (P07813 whole entry, looked up): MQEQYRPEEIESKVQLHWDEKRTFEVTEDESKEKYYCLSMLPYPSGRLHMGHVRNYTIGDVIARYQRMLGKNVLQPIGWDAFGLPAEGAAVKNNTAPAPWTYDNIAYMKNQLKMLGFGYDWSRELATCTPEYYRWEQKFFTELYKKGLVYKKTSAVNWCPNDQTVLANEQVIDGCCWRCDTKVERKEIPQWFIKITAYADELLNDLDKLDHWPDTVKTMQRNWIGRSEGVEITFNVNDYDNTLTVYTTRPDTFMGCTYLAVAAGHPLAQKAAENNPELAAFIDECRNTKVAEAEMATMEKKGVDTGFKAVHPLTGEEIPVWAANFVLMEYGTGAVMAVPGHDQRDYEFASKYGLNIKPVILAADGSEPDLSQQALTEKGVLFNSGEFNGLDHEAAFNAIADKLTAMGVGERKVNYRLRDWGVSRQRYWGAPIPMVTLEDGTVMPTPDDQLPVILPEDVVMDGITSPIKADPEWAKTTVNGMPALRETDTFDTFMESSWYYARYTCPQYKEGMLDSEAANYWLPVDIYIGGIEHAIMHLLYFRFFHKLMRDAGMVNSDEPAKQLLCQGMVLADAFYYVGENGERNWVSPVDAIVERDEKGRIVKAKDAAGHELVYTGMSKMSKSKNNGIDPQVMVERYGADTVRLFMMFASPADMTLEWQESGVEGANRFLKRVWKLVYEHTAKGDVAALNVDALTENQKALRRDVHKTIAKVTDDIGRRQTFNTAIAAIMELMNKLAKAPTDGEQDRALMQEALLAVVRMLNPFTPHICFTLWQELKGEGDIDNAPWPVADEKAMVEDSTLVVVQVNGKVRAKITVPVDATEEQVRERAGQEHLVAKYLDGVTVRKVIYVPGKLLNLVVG

[2] = target: Isoleucyl-tRNA synthetase (IleRS) (Escherichia coli (strain K12), UniProt P00956); test: Isoleucyl-tRNA synthetase enzyme inhibition (AMP-Glo; single point % inhibition at 100 μM and IC50); assay type: biochemical
Chain of Isoleucyl-tRNA synthetase (IleRS) (P00956 whole entry, looked up): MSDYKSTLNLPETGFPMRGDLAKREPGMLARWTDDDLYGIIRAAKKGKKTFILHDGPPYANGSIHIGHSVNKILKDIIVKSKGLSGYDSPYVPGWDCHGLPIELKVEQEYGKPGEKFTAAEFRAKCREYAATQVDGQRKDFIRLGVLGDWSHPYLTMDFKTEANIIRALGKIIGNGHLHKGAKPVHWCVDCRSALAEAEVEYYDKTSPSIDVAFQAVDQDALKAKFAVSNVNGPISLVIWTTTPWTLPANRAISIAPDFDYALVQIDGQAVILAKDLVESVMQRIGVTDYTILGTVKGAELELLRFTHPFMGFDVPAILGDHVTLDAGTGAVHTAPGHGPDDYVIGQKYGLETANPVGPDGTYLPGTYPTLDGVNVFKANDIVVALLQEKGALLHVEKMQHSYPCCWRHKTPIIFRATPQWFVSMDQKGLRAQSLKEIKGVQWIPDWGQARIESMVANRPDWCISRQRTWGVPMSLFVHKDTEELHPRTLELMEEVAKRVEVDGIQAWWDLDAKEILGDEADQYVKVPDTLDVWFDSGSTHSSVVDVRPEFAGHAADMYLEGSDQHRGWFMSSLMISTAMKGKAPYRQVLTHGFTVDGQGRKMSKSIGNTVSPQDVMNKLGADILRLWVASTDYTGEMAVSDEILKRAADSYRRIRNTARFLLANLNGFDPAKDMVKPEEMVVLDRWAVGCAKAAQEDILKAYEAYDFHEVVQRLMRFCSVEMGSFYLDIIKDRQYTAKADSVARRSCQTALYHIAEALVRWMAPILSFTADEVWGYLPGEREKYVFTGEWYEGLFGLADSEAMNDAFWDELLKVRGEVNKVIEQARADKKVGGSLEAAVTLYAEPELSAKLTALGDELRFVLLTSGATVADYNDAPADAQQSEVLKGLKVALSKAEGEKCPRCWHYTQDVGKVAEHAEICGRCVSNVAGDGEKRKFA
Source text: (§2) Study 1—Enzyme Inhibition
The aminoacylation reaction catalyzed by aminoacyl-tRNA synthetases (aaRS) takes place in two steps. In the first step, aaRS activates its cognate amino acid with ATP; and in the second step the activated amino acid is loaded to its corresponding tRNA. This reaction can be summarized as follows: aaRS+aa+ATP=aaRS-aa-AMP+PPi aaRS-aa-AMP+tRNA=aa-tRNA+AMP+aaRS […]
(§3) wherein: aaRS, aminoacyl-tRNA synthetase; aa, amino acid; aaRS-aa-AMP, enzyme-bound to aminoacyl-adenylate; AMP, adenosine monophosphate; aa-tRNA, aminoacyl-tRNA, PPi, inorganic pyrophosphate.
Isoleucyl-tRNA Synthetase a. Single Point Percentage Inhibition
(§4) The activity of the pathogenic aaRSs was monitored by measuring AMP production using the commercial kit AMP-Glo (Promega, Madison, USA).
Ligand stock solutions were prepared in 100% DMSO at 10 mM concentration. An assay buffer consisting of 100 mM Tris HCl pH 7.6, 40 mM MgCl, 20 mM KCl and 150 mM NaCl was prepared in dH2O. An enzyme solution containing 51.77 μM IleRS was prepared in assay buffer to provide 30 nM final assay concentration and 75 nM reservoir concentration for a 1:2.5 dilution in the assay. A substrate solution was also prepared in assay buffer with 50 mM L-isoleucine, 10 mM ATP and 100 mg/mL tRNA. A final assay concentration of 500 μM L-isoleucine, 5 μM ATP and 1 mg/mL tRNA and reservoir concentration of 833.33 μM L-isoleucine, 8.33 μM ATP and 1.67 mg/mL tRNA was used for a 1:1.66 dilution in assay.
(§5) Enzyme percentage inhibition values were recorded in triplicate at a single point concentration of 100 μM.
(§6) Using the same enzymatic assay in a 384-well plate format, ten point concentration response curves were generated for each compound using a top concentration of 100 μM. The known inhibitor, IleAMS was used as a positive control for the IleRS assay. 100% DMSO was used as a negative control. The IC50 was calculated based on non-linear regression analysis.

[3] = Human cell viability / cytotoxicity (CellTiter-Glo, 24 hours); assay type: cell-based; settings: human, HepG2 cells (ATCC HB-8065); HepG2 ATCC HB-8065, 24 hours; read-out: Cytotoxicity in HepG2 ATCC HB-8065 Cell Line, IC50
Procedure, shortened: as §1

[4] = target: Valyl-tRNA synthetase (ValRS) (Escherichia coli (strain K12), UniProt P07118); test: Valyl-tRNA synthetase enzyme inhibition (AMP-Glo; single point % inhibition at 100 μM and IC50); assay type: biochemical
Chain of Valyl-tRNA synthetase (ValRS) (P07118 whole entry): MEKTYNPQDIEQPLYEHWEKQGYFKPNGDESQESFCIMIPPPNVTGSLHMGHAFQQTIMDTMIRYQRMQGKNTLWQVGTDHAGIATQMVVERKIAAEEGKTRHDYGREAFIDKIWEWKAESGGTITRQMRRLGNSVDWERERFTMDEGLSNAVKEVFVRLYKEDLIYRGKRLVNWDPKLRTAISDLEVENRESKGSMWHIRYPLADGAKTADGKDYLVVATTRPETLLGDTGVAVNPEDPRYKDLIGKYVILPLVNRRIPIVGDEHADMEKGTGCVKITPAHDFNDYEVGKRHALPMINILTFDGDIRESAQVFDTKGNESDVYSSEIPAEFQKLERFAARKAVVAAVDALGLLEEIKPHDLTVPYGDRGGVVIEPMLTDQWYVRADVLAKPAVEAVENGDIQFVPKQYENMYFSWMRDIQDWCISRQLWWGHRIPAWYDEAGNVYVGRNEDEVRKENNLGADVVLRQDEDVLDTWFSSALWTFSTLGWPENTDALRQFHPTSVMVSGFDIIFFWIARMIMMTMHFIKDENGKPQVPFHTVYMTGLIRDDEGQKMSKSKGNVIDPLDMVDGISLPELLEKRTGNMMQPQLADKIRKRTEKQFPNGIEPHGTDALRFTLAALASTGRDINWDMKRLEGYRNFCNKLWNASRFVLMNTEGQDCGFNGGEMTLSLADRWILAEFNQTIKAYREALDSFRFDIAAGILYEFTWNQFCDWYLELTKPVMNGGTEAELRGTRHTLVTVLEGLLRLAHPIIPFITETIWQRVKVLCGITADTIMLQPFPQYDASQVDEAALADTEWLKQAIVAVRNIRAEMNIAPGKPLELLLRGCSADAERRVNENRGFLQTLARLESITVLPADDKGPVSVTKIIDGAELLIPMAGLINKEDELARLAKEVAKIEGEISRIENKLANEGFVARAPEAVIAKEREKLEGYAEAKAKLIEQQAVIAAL
Source text: as §2
The aminoacylation reaction catalyzed by aminoacyl-tRNA synthetases (aaRS) takes place in two steps. In the first step, aaRS activates its cognate amino acid with ATP; and in the second step the activated amino acid is loaded to its corresponding tRNA. This reaction can be summarized as follows: aaRS+aa+ATP=aaRS-aa-AMP+PPi aaRS-aa-AMP+tRNA=aa-tRNA+AMP+aaRS
as §3
a. Single Point Percentage Inhibition
as §4
Ligand stock solutions were prepared in 100% DMSO at 10 mM concentration. An assay buffer consisting of 100 mM Tris HCl pH 7.6, 40 mM MgCl, 20 mM KCl and 150 mM NaCl was prepared in dH2O. An enzyme solution containing 42.33 μM ValRS was prepared in assay buffer to provide 30 nM final assay concentration and 75 nM reservoir concentration for a 1:2.5 dilution in the assay. A substrate solution was also prepared in assay buffer with 50 mM L-valine, 10 mM ATP and 100 mg/mL tRNA. A final assay concentration of 500 μM L-valine, 2.5 μM ATP and 0.5 mg/mL tRNA and reservoir concentration of 833.33 μM L-valine, […] and 0.83 mg/mL tRNA was used for a 1:1.66 dilution in assay.
as §5
as §6, with “ValAMS” for “IleAMS”, “ValRS” for “IleRS”

E. coli UT189 = test: Efficacy in a murine model of urinary tract infection (microbial burden in urine, bladder, kidney); assay type: in vivo; settings: Experiment 1, mouse UTI
Procedure: All animal studies were performed under UK Home Office License PA67E0BAA (protocol E9 for UTI model) with local ethical committee clearance. All studies were performed by technicians who have completed parts A, B and C of the UK Home Office Personal License course and hold current personal licenses. All experiments were performed in dedicated Biohazard 2 facilities (the site holds a Certificate of Designation). Female mice used in these studies were supplied by Janvier laboratories and were specific pathogen free. The strain of mouse used was C3H/HeNRj, which is a well characterized inbred strain. Mice were 16-20 g on receipt and were allowed to acclimatize for at least 7 days prior to any intervention. Five days prior to infection mice were transferred onto drinking water containing 5% glucose. […] It was stored at 4° C. between doses. Test articles were prepared by solubilising in water for injection, taking the salt correction factor into account. […] Mice (n=6 per group) were infected by directly administering 0.05 mL of inoculum via the urethra into the bladder under parenteral anaesthesia. Drinking water was withheld two hours pre-infection and bladders were emptied prior to infection. Once infected, infection catheters were left in the urinary tract for 10 minutes to reduce the risk of the organism flowing back out. The mice were monitored at a frequency appropriate for their clinical condition. Mouse weights were recorded at least once daily both to ensure animals remained within ethical limits and to monitor efficacy of treatment. Twenty-four hours post infection, urine was collected from pre-treatment animals and used to assess the infection level. Urine samples were quantitatively cultured onto MacConkey's agar plates and incubated at 37° C. for 24 hours before colonies were counted. In addition, five mice were euthanised by pentobarbitone overdose to provide a 24 hour pre-treatment control group. Forty-eight hours post-infection, urine was collected from all mice. Seventy-two hours post infection, the clinical condition and body weight of all remaining animals was assessed and urine samples were collected. Animals were then euthanised by pentobarbitone overdose and kidneys and bladders were removed and weighed. Tissue samples were homogenized using a Precellys 24 dual bead beater in 2 mL ice cold sterile phosphate buffered saline. Homogenates and urine samples were quantitatively cultured onto MacConkey's agar plates and incubated at 37° C. for 24 hours before colonies were counted. Data Analysis The data from the culture burdens were analysed using appropriate non-parametric statistical models (Kruskal-Wallis using Conover-Inman to make all pairwise comparisons between groups) with StatsDirect software, and compared to pretreatment and vehicle controls.

[5] = tested on: bacteria (ATCC reference strains); test: Antibacterial activity, MIC by broth micro-dilution (CLSI)
E. coli ATCC 25922 = test: Efficacy in a murine model of disseminated infection (microbial burden in blood, kidney, spleen); assay type: in vivo; settings: mouse, harvest 5 hr
[6] = 1.875 mg/kg/dose sc 1 and 3 hr post-infection
[7] = 7.5 mg/kg/dose po 1 and 3 hr post-infection
[8] = 7.5 mg/kg/dose sc 1 and 3 hr post-infection
[9] = 30 mg/kg/dose po 1 and 3 hr post-infection
[10] = 30 mg/kg/dose sc 1 and 3 hr post-infection

## CC(C)C[C@H](N)C(=O)N=[S@@](N)(=O)c1cccs1.Cl [ANASIA-007-2, (S)-2-amino-N—((R)-amino(oxo) (thiophen-2-yl)-λ6-sulfanylidene)-4-methyl pentanamide hydrochloride]
HepG2 ATCC HB-8065 cells
  Cytotoxicity in HepG2 ATCC HB-8065 Cell Line, IC50: >64.0 µg/mL
[1]; E. coli LeuRS, read-out: Enzyme Inhibition - IC50, E. coli LeuRS
  IC50: 4.9 µM

## CC(C)[C@H](N)C(=O)N=S(N)(=O)c1cccc2ccccc12 (stereo partly shown) [ANASIA-025]
[2]; E. coli IleRS, read-out: Enzyme Inhibition - IC50, E. coli IleRS
  IC50: > 100 µM
[3]
  IC50 at 24 h: > 64 µg/mL
[4]
  IC50: 21.9 µM

## CC(C)C[C@H](N)C(=O)N=[S@](N)(=O)c1scc(F)c1F.Cl [ANASIA-103-1]
[3]
  IC50 at 24 h: > 64 µg/mL
[1]
  IC50: 0.0195 µM
E. coli UT189; 5 mg/kg/dose sc every 4 hours
  Reduction in burden from vehicle control, Bladder 72 hr: 1.28 Log10 cfu/g or mL
  Reduction in burden from vehicle control, Kidney 72 hr: 0.93 Log10 cfu/g or mL
  Reduction in burden from vehicle control, Urine 48 hr: 1.36 Log10 cfu/g or mL
  Reduction in burden from vehicle control, Urine 72 hr: 0.11 Log10 cfu/g or mL
E. coli UT189; 15 mg/kg/dose sc every 4 hours
  Reduction in burden from vehicle control, Bladder 72 hr: 2.08 Log10 cfu/g or mL
  Reduction in burden from vehicle control, Kidney 72 hr: 2.28 Log10 cfu/g or mL
  Reduction in burden from vehicle control, Urine 48 hr: 2.14 Log10 cfu/g or mL
  Reduction in burden from vehicle control, Urine 72 hr: 2.71 Log10 cfu/g or mL
E. coli UT189; 45 mg/kg/dose sc every 4 hours
  Reduction in burden from vehicle control, Bladder 72 hr: 1.49 Log10 cfu/g or mL
  Reduction in burden from vehicle control, Kidney 72 hr: 1.25 Log10 cfu/g or mL
  Reduction in burden from vehicle control, Urine 48 hr: 1.74 Log10 cfu/g or mL
  Reduction in burden from vehicle control, Urine 72 hr: 2.64 Log10 cfu/g or mL
[5]; Acinetobacter baumannii, read-out: Antibacterial Activity (MIC), E = A. baumannii B1931
  MIC: 16 µg/mL
[5]; Escherichia coli, ATCC25922, read-out: Antibacterial Activity (MIC), A = E. coli ATCC 25922
  MIC: 1 µg/mL
[5]; Escherichia coli, BAA2469, read-out: Antibacterial Activity (MIC), G = E. coli BAA-2469
  MIC: 10.1 µg/mL
[5]; Haemophilus influenzae, ATCC49247, read-out: Antibacterial Activity (MIC), F = H. influenzae ATCC 49247
  MIC: 1 µg/mL
[5]; Klebsiella pneumoniae, ATCC700603, read-out: Antibacterial Activity (MIC), C = K. pneumoniae ATCC 700603
  MIC: 64 µg/mL
[5]; Pseudomonas aeruginosa, ATCC27853, read-out: Antibacterial Activity (MIC), D = P. aeruginosa ATCC 27853
  MIC: 64 µg/mL
E. coli ATCC 25922; [6]
  Reduction in burden from vehicle control, Blood: 0.32 Log10 cfu/g or mL
  Reduction in burden from vehicle control, Kidney: 1.26 Log10 cfu/g or mL
  Reduction in burden from vehicle control, Spleen: 0.60 Log10 cfu/g or mL
E. coli ATCC 25922; [7]
  Reduction in burden from vehicle control, Blood: 0.43 Log10 cfu/g or mL
  Reduction in burden from vehicle control, Kidney: 1.28 Log10 cfu/g or mL
  Reduction in burden from vehicle control, Spleen: 1.46 Log10 cfu/g or mL
E. coli ATCC 25922; [8]
  Reduction in burden from vehicle control, Blood: 1.26 Log10 cfu/g or mL
  Reduction in burden from vehicle control, Kidney: 1.66 Log10 cfu/g or mL
  Reduction in burden from vehicle control, Spleen: 1.64 Log10 cfu/g or mL
E. coli ATCC 25922; [9]
  Reduction in burden from vehicle control, Blood: 0.81 Log10 cfu/g or mL
  Reduction in burden from vehicle control, Kidney: 1.59 Log10 cfu/g or mL
  Reduction in burden from vehicle control, Spleen: 1.61 Log10 cfu/g or mL
E. coli ATCC 25922; [10]
  Reduction in burden from vehicle control, Blood: 2.18 Log10 cfu/g or mL
  Reduction in burden from vehicle control, Kidney: 3.06 Log10 cfu/g or mL
  Reduction in burden from vehicle control, Spleen: 2.24 Log10 cfu/g or mL

## CC(C)[C@H](N)C(=O)N=[S@](N)(=O)c1cccc(OC(F)F)c1 [ANASIA-117-1]
[4]; E. coli ValRS, read-out: Enzyme Inhibition - IC50, E. coli ValRS
  IC50: 47.9 µM

## CC(C)[C@H](N)C(=O)N=S(N)(=O)c1cc2sccc2s1 (stereo partly shown) [ANASIA-118]
[2]
  IC50: 52.9 µM
[4]
  IC50: 38.6 µM
